In brackets after ≈: the same amount, converted by molar mass.
What was measured:
Assay in all cases: ≥ marks a high value that may be exact or a test limit, other limits are often not marked, values filed in µg/mL are converted to µM
[1] = tested on: Salmonella typhimurium
[2] = tested on: Escherichia coli UB1005
[3] = tested on: Staphylococcus aureus
[4] = tested on: Pseudomonas aeruginosa
[5] = tested on: Escherichia coli 55B5
[6] = tested on: Staphylococcus carnosus KHS
[7] = tested on: Serratia rubidaea X01
[8] = tested on: Escherichia coli ATCC 25922
[9] = tested on: Rhodococcus rhodochrous X15
[10] = tested on: Staphylococcus aureus ATCC 2592
[11] = tested on: Psychrobacter faecalis X29
[12] = tested on: Bacillus licheniformis X39
[13] = tested on: Pseudomonas aeruginosa 1.50
[14] = tested on: Bacillus pumilus
[15] = tested on: Bacillus cereus
[16] = tested on: Acinetobacter calcoaceticus
[17] = tested on: Shigella dysenteriae
[18] = tested on: Candida albicans ATCC 2002
[19] = tested on: Staphylococcus aureus ATCC 25923
[20] = tested on: Micrococcus luteus DSM 1790
[21] = tested on: Escherichia coli DSM 1103
[22] = tested on: Staphylococcus aureus DSM 1104
[23] = tested on: Escherichia coli DH5alpha
[24] = tested on: Bacillus subtilis ATCC 6633
[25] = tested on: Kocuria rhizophila DSM 348
[26] = tested on: Pseudomonas aeruginosa 7A
[27] = tested on: Escherichia coli 27A
[28] = tested on: Staphylococcus aureus 15A
[29] = tested on: Pseudomonas aeruginosa 3A
[30] = tested on: Escherichia coli 23A
[31] = tested on: Staphylococcus aureus 6A
[32] = tested on: Bacillus subtilis
[33] = tested on: Staphylococcus aureus ATCC 43300
[34] = tested on: Nocardia asteroides 201118
[35] = tested on: Candida glabrata 090902

Molecule `CC[C@H](C)[C@H](NC(=O)[C@H](C)N)C(=O)N[C@@H](Cc1cnc[nH]1)C(=O)N[C@@H](CCCCN)C(=O)N[C@@H](CC(C)C)C(=O)N[C@@H](C)C(=O)N[C@@H](Cc1cnc[nH]1)C(=O)N[C@@H](CCCCN)C(=O)N[C@@H](CC(C)C)C(=O)N[C@@H](CC(C)C)C(=O)N[C@@H](CCCCN)C(=O)N[C@@H](CCCCN)C(=O)N[C@@H](CC(C)C)C(=O)N[C@@H](CC(C)C)C(=O)N[C@@H](CCCN=C(N)N)C(=O)N[C@@H](C)C(=O)N[C@H](C(=O)N[C@@H](CCCCN)C(=O)N[C@@H](CCCCN)C(=O)N[C@@H](CC(C)C)C(=O)N[C@@H](C)C(=O)N[C@@H](CC(N)=O)C(=O)O)C(C)C` [AIHKLAHKLLKKLLRAVKKLAN] has an MIC [1] of 6 µM (≈ 15 µg/mL), an MIC [2] of 3.1 µM (≈ 7.77 µg/mL) and an MIC [3] of 30 µM (≈ 75.2 µg/mL). The MIC [4] was 4.5 µM (≈ 11.3 µg/mL) and the MIC [5] was 2.5 µM (≈ 6.27 µg/mL).
`CSCC[C@H](NC(=O)CNC(=O)[C@H](C)NC(=O)[C@H](CCC(=O)O)NC(=O)[C@H](CCCCN)NC(=O)[C@H](C)NC(=O)[C@@H](NC(=O)CNC(=O)[C@H](CCCCN)NC(=O)[C@H](CC(C)C)NC(=O)[C@H](CC(C)C)NC(=O)[C@H](CC(=O)O)NC(=O)CNC(=O)[C@H](Cc1ccccc1)NC(=O)[C@H](C)NC(=O)CN)C(C)C)C(=O)N[C@@H](CCCCN)C(=O)N[C@@H](CC(C)C)C(=O)N[C@@H](CC(C)C)C(=O)N[C@@H](CC(N)=O)C(=O)N[C@@H](CCSC)C(=O)N[C@@H](C)C(=O)N[C@@H](CCC(N)=O)C(=O)N[C@H]1CSSC[C@@H](C(=O)O)NC(=O)[C@H](CCCCN)NC(=O)CNC(=O)[C@H](CO)NC(=O)[C@H](CC(C)C)NC(=O)[C@H](CCCCN)NC1=O` [GAFGDLLKGVAKEAGMKLLNMAQCKLSGKC] showed an MIC [6] of 2 µM (≈ 6.16 µg/mL), an MIC [7] of no less than 130 µM and an MIC [8] of 32.5 µM (≈ 100 µg/mL). For the same molecule, the MIC [9] was 0.5 µM (≈ 1.54 µg/mL), the MIC [10] was 2 µM (≈ 6.16 µg/mL) and the MIC [11] was 0.5 µM (≈ 1.54 µg/mL). For the same molecule, the MIC [12] was 8 µM (≈ 24.6 µg/mL) and the MIC [13] was no less than 65 µM.
Molecule `CC[C@H](C)[C@H](NC(=O)CN)C(=O)N[C@@H](Cc1ccccc1)C(=O)N[C@@H](C)C(=O)N[C@@H](CC(C)C)C(=O)N[C@H](C(=O)N[C@@H](CCCCN)C(=O)N[C@H](C(=O)N[C@@H](C)C(=O)N[C@@H](C)C(=O)N[C@@H](CCCCN)C(=O)N[C@@H](Cc1ccccc1)C(=O)N[C@H](C(=O)NCC(=O)N[C@@H](CCCCN)C(=O)N[C@@H](CC(N)=O)C(=O)N[C@@H](CC(C)C)C(=O)N[C@@H](CC(C)C)C(=O)N[C@@H](CCCCN)C(=O)N[C@@H](CCC(N)=O)C(=O)N[C@@H](C)C(=O)NCC(=O)N[C@@H](CCCCN)C(=O)N[C@@H](C)C(=O)NCC(=O)N[C@@H](CC(C)C)C(=O)N[C@@H](CCC(=O)O)C(=O)N[C@@H](Cc1cnc[nH]1)C(=O)N[C@@H](CC(C)C)C(=O)N[C@@H](C)C(=O)N[C@H]1CSSC[C@@H](C(=O)O)NC(=O)[C@H](CCC(N)=O)NC(=O)[C@H](CC(N)=O)NC(=O)[C@H](CC(N)=O)NC(=O)[C@H](C)NC(=O)[C@H](CCCCN)NC1=O)C(C)C)[C@@H](C)O)[C@@H](C)CC` [GIFALIKTAAKFVGKNLLKQAGKAGLEHLACKANNQC] has an MIC [14] of 0.646 µM (≈ 2.5 µg/mL), an MIC [15] of 1.94 µM (≈ 7.5 µg/mL) and an MIC [8] of 3.23 µM (≈ 12.5 µg/mL). The MIC [4] was 12.9 µM (≈ 50 µg/mL), the MIC [16] was 6.46 µM (≈ 25 µg/mL) and the MIC [10] was 0.646 µM (≈ 2.5 µg/mL). It also gave an MIC [17] of 1.94 µM (≈ 7.5 µg/mL) and an MIC [18] of 0.646 µM (≈ 2.5 µg/mL).
`CC[C@H](C)[C@H](NC(=O)[C@H](C)NC(=O)CNC(=O)[C@H](C)NC(=O)[C@H](CCCCN)NC(=O)[C@H](CO)NC(=O)[C@H](C)NC(=O)[C@H](CCSC)NC(=O)CN)C(=O)N[C@@H](C)C(=O)NCC(=O)N[C@@H](CCCCN)C(=O)N[C@H](C(=O)N[C@@H](C)C(=O)N[C@@H](CCCCN)C(=O)N[C@H](C(=O)N[C@@H](C)C(=O)N[C@@H](CC(C)C)C(=O)N[C@@H](CCCCN)C(=O)N[C@@H](C)C(=O)N[C@@H](CC(C)C)C(=O)O)C(C)C)[C@@H](C)CC` [GMASKAGAIAGKIAKVALKAL] was tested, and the MIC [19] was 5.08 µM (≈ 10 µg/mL), the MIC [20] was no less than 65 µM and the MIC [21] was no less than 65 µM. For the same molecule, the MIC [8] was 0.0305 µM (≈ 0.0601 µg/mL), the MIC [22] was no less than 65 µM and the MIC [23] was no less than 65 µM. For the same molecule, the MIC [24] was 16.2 µM (≈ 32 µg/mL) and the MIC [25] was no less than 65 µM.
`CC[C@H](C)[C@H](N)C(=O)N[C@@H](CC(N)=O)C(=O)N[C@@H](CCSC)C(=O)N[C@@H](CCCCN)C(=O)N[C@@H](C)C(=O)N[C@@H](CO)C(=O)N[C@@H](C)C(=O)N[C@@H](C)C(=O)N[C@H](C(=O)N[C@@H](C)C(=O)N[C@@H](CCCCN)C(=O)N[C@@H](CCCCN)C(=O)N[C@@H](CC(C)C)C(=O)N[C@@H](CC(C)C)C(=O)O)C(C)C` [INMKASAAVAKKLL] showed an MIC [8] of 10.3 µM (≈ 15 µg/mL), an MIC [26] of no less than 82.3 µM and an MIC [10] of 2.57 µM (≈ 3.75 µg/mL). For the same molecule, the MIC [27] was no less than 41.2 µM, the MIC [28] was 2.57 µM (≈ 3.75 µg/mL) and the MIC [29] was 10.3 µM (≈ 15 µg/mL). For the same molecule, the MIC [30] was 10.3 µM (≈ 15 µg/mL), the MIC [31] was 1.3 µM (≈ 1.9 µg/mL) and the MIC [18] was 10.3 µM (≈ 15 µg/mL).
`CC[C@H](C)[C@H](NC(=O)[C@H](Cc1ccccc1)NC(=O)CNC(=O)[C@H](CCCCN)NC(=O)CNC(=O)[C@H](C)NC(=O)[C@H](CC(N)=O)NC(=O)[C@H](CCCCN)NC(=O)[C@@H](NC(=O)[C@@H](NC(=O)[C@H](CCC(=O)O)NC(=O)[C@H](Cc1c[nH]c2ccccc12)NC(=O)[C@H](CC(C)C)NC(=O)[C@@H](N)CO)[C@@H](C)O)[C@@H](C)CC)C(=O)N[C@@H](CC(C)C)C(=O)N[C@@H](CC(N)=O)C(=O)N[C@H](C(=O)N[C@@H](CC(C)C)C(=O)N[C@@H](CC(=O)O)C(=O)N[C@@H](CCCCN)C(=O)N[C@H](C(=O)N[C@@H](CCCN=C(N)N)C(=O)N[C@H]1CSSC[C@@H](C(=O)N[C@@H](CCCCN)C(=O)N[C@H](C(=O)O)[C@@H](C)O)NC(=O)CNC(=O)CNC(=O)[C@H](C)NC(=O)[C@H](C(C)C)NC(=O)[C@H](CCCCN)NC1=O)[C@@H](C)CC)[C@@H](C)CC` [SLWETIKNAGKGFILNILDKIRCKVAGGCKT] showed an MIC [32] of 2.78 µM (≈ 9.37 µg/mL), an MIC [8] of 75 µM (≈ 253 µg/mL) and an MIC [33] of 2.78 µM (≈ 9.37 µg/mL). For the same molecule, the MIC [34] was 4.7 µM (≈ 15.9 µg/mL), the MIC [35] was no less than 150 µM and the MIC [18] was 4.44 µM (≈ 15 µg/mL).

From DBAASP
